We go through 2 molecules from patent publication US7674454B2, “Enzyme-prodrug therapy for prosthetic joint repair” (Innovata Limited, priority 2004, dated 2010).

Series [1] deals with interface cells. Description: Transduction and cell killing assay: CTL102 infection, then CB1954, WST metabolic activity readout. The series is classed as cell-based, human. The method, then: Cell viability was then determined using a metabolic activity assay.
For all experiments described, interface cells were used. Interface tissue was removed from the periprosthetic space during revision-surgery by an orthopedic surgeon and collected in sterile phosphate buffered saline (PBS). Connective tissue and fat were removed thoroughly and the interface tissue was digested for at least two hours at 37° C. using collagenase 1A (1 mg/ml; Sigma, St Louis, Mo., USA). Cells were then harvested by filtering the tissue/collagenase substance through a 200 μm filter (NPBI, Emmer-Compascuum, The Netherlands). The cells were cultured in 75 cm^2 flasks (Cellstar, Greiner, Alphen aan de Rijn, The Netherlands) with Iscove's modified Dulbecco's medium (IMDM; Biowitthaker, Verviers, Belgium), supplemented with glutamax (GibcoBRL, Paisley, UK), penicillin and streptomycin (Boehringer Mannheim, Germany), and 10% fetal calf serum (FCS; GibcoBRL, Paisley, UK) at 37° C. and 5% CO2.
Before each experiment interface cells were detached from the flasks using 0.25% trypsin (GibcoBRL, Paisley, UK). The cells were counted in a bürker counter and death cells were excluded by trypan blue. Cells were seeded in a 96 wells-plate (flat bottom) at a density of 5,000 cells per well. Cells were incubated overnight to allow attachment to the bottom. […]
Hereafter the absorbance at 415 nm was measured.

In series [2] the test system is interface cells. Description: NTR/CB1954 cell killing in the presence of, or after transient exposure to, contrast medium. The series is classed as cell-based, human. The conditions noted are these: results not shown. The text has this:
The effect of contrast medium (iotrolan) on HAdV5-transduction of interface cells was investigated with Ad.CMV.LacZ. Transducibility of the cells increases with the concentration of HAdV-5 vector. However, the contrast medium has restraining influence on the transduction efficiency. With higher concentrations of iotrolan, the HAdV-5 vector concentration has less effect on gene transfer efficiency. […] The effect of iotrolan on the transduction is statistically significant (p<0.001). Furthermore, differences between cells from different individuals (n=6) have been observed. To evaluate the effect of contrast medium on cell killing by NTR/CB1954, the previously described experiment for the efficiency of cell killing was repeated in the presence of contrast medium. […] This incompatibility may be due to the presence of iodine within the contrast media. Screening of all available contrast media may allow determination of a contrast medium compatible with viral transduction.
The influence of transient exposure to contrast medium on the transduction of interface cells was investigated. Interface cells were exposed to contrast medium for 0 to 120 minutes and the period between washing away of the contrast medium and performing the NTR/CB1954 cell killing approach was varied. […]

For series [3] the following is noted: Djeha et al, 2001; cited from earlier work.
The subject of a further series is loosened hip prosthesis. Description: Phase-1 clinical study: intra-articular vector, prodrug, then cement injection. The conditions noted are these: Patient 1, twelve hours after prodrug injection.
Series [4] concerns interface cells. The series is described as follows: Effect of contrast medium on interface cells, WST-1 viability. The conditions noted are these: 4 hours exposure, 0-50% contrast medium, viability after 3 more days; p=0.563. It is filed as cell-based, human. The protocol:
Interface cells were seeded in 96-wells plates. Into each well 50 μl of IMDM/20% FCS and 50 μl of a solution containing contrast medium and 0.9% NaCl in various concentrations (0, 12.5, 25, and 50% contrast medium) were added. The contrast medium used was the low-osmolarity, nonionic dimer iotrolan (Isovist; Schering, Berlin, Germany). After four hours of exposure to the contrast medium, the cells were washed twice and incubated in IMDM/10% FCS. The cells were cultured for three more days, changing the culture medium every day. On day four, cell viability was determined with the WST-1 cell viability assay kit (Roche, Mannheim, Germany) according to the manufacturers protocol.
On the technique in general: Tetrazolium assays rely on reduction of a dye to a coloured formazan, in cell work by metabolically active cells.

The subject of series [5] is interface cells. The series is described as follows: Effect of contrast medium on HAdV-5 transduction of interface cells. The series is classed as cell-based, human. The conditions noted are these: contrast medium concentration of 50%, 4 hours; p<0.001. The protocol:
Interface cells were seeded in 96-wells plates. After overnight incubation cells were infected with Ad.CMV.LacZ (concentrations of 0, 25, 100, and 200 pfu/cell) in IMDM/20% FCS, 50 μl per well. Fifty μl Iotrolan (Isovist) in 0.9% NaCl was added in concentrations of 0, 25, 50, and 100%. (When diluted in the culture medium these concentrations decreased to 0, 12.5, 25, and 50%.) Four hours after infection, the cells were washed twice with IMDM and incubated for the rest of the day in IMDM/10% FCS at 37° C. and 5% CO2. The Ad.CMV.LacZ transduced cells were cultured for three days after removal of the vector and contrast medium. Subsequently, the cells were fixed and stained for β-galactasidase activity. The transduction rate was assessed as described above.

Description for loosened hip prosthesis: After 48 hours, to allow transduction of target cells and expression of the nitroreductase transgene, CB1954 (at a dosage of 24 mg m^−2) is injected intra-articularly.

Regarding `NC(=O)c1cc(N2CC2)c([N+](=O)[O-])cc1[N+](=O)[O-]` [CB1954, 5-(aziridin-1-yl)-2,4-dinitrobenzamide], in the series with interface cells [1] (200 virus pfu/cell and CB1954 50 μM, cells from two revision surgery patients), the “killing of interface cells” value is listed as 90%. For the same molecule, the “dose dependence of killing” value with interface cells [1] (CTL102 0-200 IU/cell, CB1954 0-50 μM, cells from both patients) was “virus and CB1954-dose dependent killing”. The “cell killing by NTR/CB1954” value with interface cells [2] is reported as “cells are not killed”. Besides, the tolerability in man result in series [3] was “well-tolerated in man”. Moreover, the nausea with loosened hip prosthesis stood at 1 WHO grade.
Turning to `CN(C(=O)CC(=O)N(C)c1c(I)c(C(=O)NC(CO)C(O)CO)c(I)c(C(=O)NC(CO)C(O)CO)c1I)c1c(I)c(C(=O)NC(CO)C(O)CO)c(I)c(C(=O)NC(CO)C(O)CO)c1I` (stereo not shown) [iotrolan], the “effect on viability of interface cells” value in the series with interface cells [4] is recorded as “does not affect the viability of the cells at any concentration”. Also, the “transduction of interface cells by Ad.CMV.LacZ” value with interface cells [5] is listed as “none of the cells were transduced”.
